The source made the active and inactive calls.
Assays:
[1] = target: T1, Acetylcholinesterase (Homo sapiens, UniProt P22303)
Description: Inhibition of human acetylcholinesterase-I

[2] = target: T2, Muscarinic acetylcholine receptor M1 (Mus musculus, UniProt P12657); assay: biochemical
T2 sequence (P12657 whole entry): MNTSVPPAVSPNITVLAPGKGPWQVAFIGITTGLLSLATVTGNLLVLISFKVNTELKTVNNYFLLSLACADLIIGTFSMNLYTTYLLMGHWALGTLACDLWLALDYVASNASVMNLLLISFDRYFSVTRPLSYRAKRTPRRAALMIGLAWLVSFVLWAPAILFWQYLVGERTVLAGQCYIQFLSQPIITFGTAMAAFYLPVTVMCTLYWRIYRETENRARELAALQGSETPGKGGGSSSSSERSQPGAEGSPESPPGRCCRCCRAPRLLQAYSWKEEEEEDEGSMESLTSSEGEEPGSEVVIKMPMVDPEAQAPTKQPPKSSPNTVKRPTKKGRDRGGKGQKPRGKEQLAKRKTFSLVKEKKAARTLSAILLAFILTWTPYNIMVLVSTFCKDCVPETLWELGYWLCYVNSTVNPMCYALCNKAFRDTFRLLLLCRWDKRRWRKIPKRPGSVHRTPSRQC
Description: Compound was evaluated for the competitive inhibition of [3H]pirenzepine binding to Muscarinic acetylcholine receptor M1 of mouse cerebral cortex

[3] = organism: Rattus norvegicus
[4] = target: T3, Cholinesterase (Homo sapiens, UniProt P06276)
Description: The compound was evaluated for the inhibition human of Butyrylcholinesterase I

[5] = target: T4, Muscarinic acetylcholine receptor M2 (Mus musculus, UniProt Q9ERZ4); assay: biochemical
T4 sequence (Q9ERZ4 whole entry): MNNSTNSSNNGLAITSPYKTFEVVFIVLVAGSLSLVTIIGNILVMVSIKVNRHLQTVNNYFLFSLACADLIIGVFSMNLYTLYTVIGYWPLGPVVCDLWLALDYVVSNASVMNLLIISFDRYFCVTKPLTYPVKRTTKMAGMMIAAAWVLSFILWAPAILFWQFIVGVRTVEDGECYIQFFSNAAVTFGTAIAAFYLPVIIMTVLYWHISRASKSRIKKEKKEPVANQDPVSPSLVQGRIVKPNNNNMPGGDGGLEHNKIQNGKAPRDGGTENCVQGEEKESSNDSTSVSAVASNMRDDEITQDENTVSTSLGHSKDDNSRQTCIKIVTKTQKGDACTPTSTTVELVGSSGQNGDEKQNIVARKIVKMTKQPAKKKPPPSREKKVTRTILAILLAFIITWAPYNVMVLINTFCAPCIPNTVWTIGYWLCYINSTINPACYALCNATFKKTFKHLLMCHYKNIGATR
Description: Compound was evaluated for the competitive inhibition of [3H]methylscopolamine binding to Muscarinic acetylcholine receptor M2 of mouse cerebral cortex

[6] = target: T1, Acetylcholinesterase; remark: listed apart in the source
Description: The compound was evaluated for the inhibition of human Acetylcholinesterase

[7] = organism: Rattus norvegicus; assay: Concentration required to potentiate the contraction of isolated rat ileum produced by 1*10e-7 M ACh by 20 percent; IA= inactive; format: functional
[8] = organism: Mus musculus
Description: Compound was evaluated for the binding affinity by displacing [3H]methylscopolamine ([3H]-NMS) from mouse cerebral cortex tissue.

[9] = NMS/OXO-M values are calculated from the ratio of the respective apparent Ki values
[10] = organism: Mus musculus; remark: listed apart in the source
[11] = target: T2, Muscarinic acetylcholine receptor M1; assay: biochemical; remark: listed apart in the source
Description: Compound was evaluated for the competitive inhibition of [3H]pirenzepine binding to muscarinic acetylcholine receptor M1 of mouse cerebral cortex

[12] = target: T3, Cholinesterase; remark: listed apart in the source
Description: The compound was evaluated for the inhibition human of Butyrylcholinesterase

[13] = target: T3, Cholinesterase; assay: Ratio of IC50 values obtained for BChE/ AChE
[14] = target: T4, Muscarinic acetylcholine receptor M2; assay: biochemical; remark: listed apart in the source
Description: Compound was evaluated for the competitive inhibition of [3H]methylscopolamine binding to muscarinic acetylcholine receptor M2 of mouse cerebral cortex

[15] = target: T5, Muscarinic acetylcholine receptor M2 (Mus musculus) (UniProt Q9ERZ4); assay: Selectivity was defined as the ratio between M2-IC50/M1-IC50
T5 sequence (whole entry): T4 sequence (Q9ERZ4 whole entry)

[16] = organism: Rattus norvegicus; assay: Concentration required to potentiate the contraction of isolated rat ileum produced by 1*10e-7 M ACh by 20 percent; IA=Inactive; format: functional

T3 sequence (P06276 whole entry): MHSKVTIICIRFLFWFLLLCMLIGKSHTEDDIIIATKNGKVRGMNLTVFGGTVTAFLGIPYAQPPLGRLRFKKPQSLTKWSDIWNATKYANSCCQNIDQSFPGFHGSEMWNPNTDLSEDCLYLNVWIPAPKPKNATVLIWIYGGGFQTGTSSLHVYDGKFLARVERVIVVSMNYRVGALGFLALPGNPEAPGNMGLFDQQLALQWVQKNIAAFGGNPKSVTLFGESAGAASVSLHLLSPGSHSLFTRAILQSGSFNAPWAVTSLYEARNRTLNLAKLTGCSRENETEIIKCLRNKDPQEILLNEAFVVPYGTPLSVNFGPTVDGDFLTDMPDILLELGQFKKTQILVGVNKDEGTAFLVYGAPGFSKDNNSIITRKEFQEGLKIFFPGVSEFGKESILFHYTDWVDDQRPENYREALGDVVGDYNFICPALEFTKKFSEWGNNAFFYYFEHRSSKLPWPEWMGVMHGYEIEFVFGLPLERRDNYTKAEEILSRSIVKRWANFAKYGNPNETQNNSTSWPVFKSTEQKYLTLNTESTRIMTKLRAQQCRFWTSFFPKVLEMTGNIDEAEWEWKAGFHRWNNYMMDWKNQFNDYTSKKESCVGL
T1 sequence (P22303 whole entry): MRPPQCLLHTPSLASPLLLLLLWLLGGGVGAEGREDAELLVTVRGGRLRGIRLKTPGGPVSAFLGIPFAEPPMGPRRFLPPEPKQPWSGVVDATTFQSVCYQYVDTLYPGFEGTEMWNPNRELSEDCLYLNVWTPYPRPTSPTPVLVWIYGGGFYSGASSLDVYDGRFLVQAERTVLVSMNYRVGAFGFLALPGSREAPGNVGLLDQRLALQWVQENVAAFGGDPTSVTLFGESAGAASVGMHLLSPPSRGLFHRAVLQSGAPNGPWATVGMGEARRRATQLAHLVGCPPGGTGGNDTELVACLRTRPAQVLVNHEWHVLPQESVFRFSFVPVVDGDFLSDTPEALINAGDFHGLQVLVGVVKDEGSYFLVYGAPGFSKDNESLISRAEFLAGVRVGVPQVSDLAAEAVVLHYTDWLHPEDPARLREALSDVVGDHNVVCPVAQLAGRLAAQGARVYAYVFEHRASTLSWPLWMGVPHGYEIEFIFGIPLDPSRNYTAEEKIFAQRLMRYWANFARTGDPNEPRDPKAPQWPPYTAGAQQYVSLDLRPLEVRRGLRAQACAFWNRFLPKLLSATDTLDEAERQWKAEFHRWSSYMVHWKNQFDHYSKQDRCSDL

| Compound | IC50 [1] | IC50 [2] | Ileal activity [3] | IC50 [4] | IC50 [5] | IC50 [6] | IC50 [11] | IC50 [14] | further results |
| --- | --- | --- | --- | --- | --- | --- | --- | --- | --- |
| CN(C)Cc1ccc(CSCc2ccc(-c3ccc(CSCc4ccc(CN(C)C)o4)cc3)cc2)o1 | 180 nM | 680 nM | <0.01 µM | 1300 nM | 1600 nM |  |  |  |  |
| CN(C)Cc1ccc(CSCc2ccc(CN(C)C)o2)o1 | 44000 nM |  |  |  |  |  |  |  |  |
| CN(C)Cc1ccc(CSCC/N=C/NCCSCc2ccc(CN(C)C)o2)o1 | 3000 nM |  |  |  |  |  |  |  |  |
| CN(C)Cc1ccc(CSCCCCCCCCCCSCc2ccc(CN(C)C)o2)o1 |  |  |  |  |  | 1300 nM |  |  |  |
| CN(C)Cc1ccc(CSCCCCCCSCc2ccc(CN(C)C)o2)o1 | 740 nM | 540 nM |  | 2900 nM | 580 nM |  |  |  | Ileal activity [7]: inactive |
| CN(C)Cc1ccc(CSCCCSCc2ccc(CN(C)C)o2)o1 | 330 nM | 1100 nM | <0.1 µM | 4100 nM | 1500 nM |  |  |  |  |
| CN(C)Cc1ccc(CSCCCCSCc2ccc(CN(C)C)o2)o1 | 210 nM | 630 nM | <1 µM | 3100 nM | 2200 nM |  |  |  | Ki [8]: 20000 nM; Ratio [9]: 17; Ki [10]: 1200 nM |
| CN(C)Cc1ccc(CSCCN/C=C(/NCCSCc2ccc(CN(C)C)o2)[N+](=O)[O-])o1 |  |  | <0.1 µM |  |  | 74 nM | 900 nM | 500 nM | IC50 [12]: 1300 nM; Ratio [13]: 18; Ratio [15]: 0.55 |
| CN(C)Cc1ccc(CSCCNc2cc(NCCSCc3ccc(CN(C)C)o3)c([N+](=O)[O-])cc2[N+](=O)[O-])o1 |  |  | <0.05 µM |  |  | 28 nM | 490 nM | 590 nM | IC50 [12]: 25 nM; Ratio [13]: 0.89 |
| CN(C)Cc1ccc(CSCc2cccc(CSCc3ccc(CN(C)C)o3)c2)o1 | 1500 nM |  |  |  |  |  |  |  |  |
| CNC(=O)Oc1ccc2c(c1)[C@]1(C)CCN(C)[C@@H]1N2C [PHYSOSTIGMINE] |  |  | <0.005 µM |  |  |  | 37000 nM | 160000 nM |  |
| CN(C)Cc1ccc(CSCCCCCCCSCc2ccc(CN(C)C)o2)o1 |  |  |  |  |  | 610 nM | 410 nM | 710 nM | Ileal activity [16]: inactive; IC50 [12]: 1900 nM; Ratio [13]: 3.1; Ratio [15]: 1.7 |
| CN(C)Cc1ccc(CSCc2ccc(CSCc3ccc(CN(C)C)o3)cc2)o1 | 260 nM | 540 nM |  | 2700 nM | 550 nM |  |  |  | Ileal activity [7]: inactive |
| CN(C)Cc1ccc(CSCCCCCCCCCSCc2ccc(CN(C)C)o2)o1 |  |  | <0.1 µM |  |  | 460 nM | 560 nM | 400 nM | IC50 [12]: 1000 nM; Ratio [13]: 2.2; Ratio [15]: 0.71 |
| CN(C)Cc1ccc(CSCc2ccccc2CSCc2ccc(CN(C)C)o2)o1 | 9000 nM |  |  |  |  |  |  |  |  |
| CN(C)Cc1ccc(CSCCCCCCCCSCc2ccc(CN(C)C)o2)o1 |  |  | <0.1 µM |  |  | 470 nM | 310 nM | 540 nM | IC50 [12]: 1900 nM; Ratio [13]: 4; Ratio [15]: 1.8 |
| CN(C)Cc1ccc(CSCCNC(=NC#N)NCCSCc2ccc(CN(C)C)o2)o1 | 290 nM | 660 nM | <0.01 µM | 2400 nM | 470 nM |  |  |  |  |
| CN(C)Cc1ccc(CSCCNC(=O)NCCSCc2ccc(CN(C)C)o2)o1 | 48000 nM |  |  |  |  |  |  |  |  |
| CN(C)Cc1ccc(CSCCCCCSCc2ccc(CN(C)C)o2)o1 | 900 nM | 810 nM | <0.1 µM | 3600 nM | 520 nM |  |  |  |  |
| CN(C)Cc1ccc(CSCCSCc2ccc(CN(C)C)o2)o1 | 500 nM | 1100 nM | <0.1 µM | 4300 nM | 1400 nM |  |  |  |  |

Source: ChEMBL document CHEMBL1125408 (J Med Chem, 1992)
